Experimental data: patent US5556744A, “Methods and compositions for diagnosing and treating certain HIV infected patients” (The Trustees of the University of Pennsylvania, priority 1994, dated 1996)

What was measured:
[1] = tested on: maternal HIV+ sera (antibodies); experiment: RIA / ELISA binding of maternal HIV+ sera to gp120 and gp41 peptides (Example 3); set-up: species or system human
How it was run: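 Peptides were coated at 10 μg/ml in carbonate buffer pH 9.6 and blocked with 1% BSA. Sera at 1:50 and 1:500 were incubated overnight at 4°C and detected with ¹²⁵I anti-human IgG (RIA) or HRP/TMB at OD450 (ELISA). Specific binding was taken as peptide minus no-peptide wells, scored as a ratio to normal human serum.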

[2] = tested on: maternal sera (antibodies); experiment: ELISA peptide-binding of maternal sera (Example 6); set-up: species or system human; conditions: for Number of Non-Transmitters which bound to peptide / Percent of Non-Transmitters which bound to peptide: N = 12; for Number of Transmitters which bound to peptide / Percent of Transmitters which bound to peptide: N = 4
How it was run: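 Third-trimester maternal sera, from HIV-1 transmitting and non-transmitting mothers, were tested by ELISA against ~16-residue peptides spanning HIV-1 external and transmembrane glycoproteins. Each serum was run with at least 40 peptides, and values are the percentage of sera binding each peptide.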

[3] = Serum No. 1, Non-Transmission Group
[4] = Serum No. 2, Non-Transmission Group
[5] = Serum No. 3, Non-Transmission Group
[6] = Serum No. 4, Transmission Group
[7] = Serum No. 5, Transmission Group
[8] = Serum No. 6, Non-Transmission Group
[9] = Serum No. 7, Non-Transmission Group
[10] = Serum No. 8, Non-Transmission Group
[11] = Serum No. 9, Non-Transmission Group
[12] = Serum No. 10, Transmission Group
[13] = Serum No. 11, Non-Transmission Group
[14] = Serum No. 12, Non-Transmission Group
[15] = Serum No. 13, Transmission Group
[16] = Serum No. 14, Transmission Group
[17] = Serum No. 15, Transmission Group
[18] = Serum No. 16, Non-Transmission Group
[19] = Serum No. 17, Non-Transmission Group
[20] = Serum No. 18, Non-Transmission Group
[21] = Serum No. 19, Transmission Group
[22] = Serum No. 20, Non-Transmission Group

Row | Sequence | Binding of maternal HIV+ serum to peptide (sera/NHS ratio) [1, 3] | Binding of maternal HIV+ serum to peptide (sera/NHS ratio) [1, 4] | Binding of maternal HIV+ serum to peptide (sera/NHS ratio) [1, 5] | Binding of maternal HIV+ serum to peptide (sera/NHS ratio) [1, 6] | Binding of maternal HIV+ serum to peptide (sera/NHS ratio) [1, 7] | Binding of maternal HIV+ serum to peptide (sera/NHS ratio) [1, 8] | Binding of maternal HIV+ serum to peptide (sera/NHS ratio) [1, 9] | Binding of maternal HIV+ serum to peptide (sera/NHS ratio) [1, 10] | Binding of maternal HIV+ serum to peptide (sera/NHS ratio) [1, 11] | Binding of maternal HIV+ serum to peptide (sera/NHS ratio) [1, 12] | Binding of maternal HIV+ serum to peptide (sera/NHS ratio) [1, 13] | Binding of maternal HIV+ serum to peptide (sera/NHS ratio) [1, 14] | Binding of maternal HIV+ serum to peptide (sera/NHS ratio) [1, 15] | Binding of maternal HIV+ serum to peptide (sera/NHS ratio) [1, 16] | Binding of maternal HIV+ serum to peptide (sera/NHS ratio) [1, 17] | Binding of maternal HIV+ serum to peptide (sera/NHS ratio) [1, 18] | Binding of maternal HIV+ serum to peptide (sera/NHS ratio) [1, 19] | Binding of maternal HIV+ serum to peptide (sera/NHS ratio) [1, 20] | Binding of maternal HIV+ serum to peptide (sera/NHS ratio) [1, 21] | Binding of maternal HIV+ serum to peptide (sera/NHS ratio) [1, 22] | further results
1 | RKSIGIQRGPGR [Peptide 1029-33] | + (which value is between 2 to 3) | ++ (which value is greater than 3) | + (which value is between 2 to 3) | - (specific OD450 or cpm of sera sample binding to peptide divided by the specific OD450 or cpm of NHS sample binding to peptide, which value is less than 2) | + (which value is between 2 to 3) | - (specific OD450 or cpm of sera sample binding to peptide divided by the specific OD450 or cpm of NHS sample binding to peptide, which value is less than 2) | - (specific OD450 or cpm of sera sample binding to peptide divided by the specific OD450 or cpm of NHS sample binding to peptide, which value is less than 2) | - (specific OD450 or cpm of sera sample binding to peptide divided by the specific OD450 or cpm of NHS sample binding to peptide, which value is less than 2) | - (specific OD450 or cpm of sera sample binding to peptide divided by the specific OD450 or cpm of NHS sample binding to peptide, which value is less than 2) | - (specific OD450 or cpm of sera sample binding to peptide divided by the specific OD450 or cpm of NHS sample binding to peptide, which value is less than 2) | + (which value is between 2 to 3) | + (which value is between 2 to 3) | + (which value is between 2 to 3) | - (specific OD450 or cpm of sera sample binding to peptide divided by the specific OD450 or cpm of NHS sample binding to peptide, which value is less than 2) | + (which value is between 2 to 3) | - (specific OD450 or cpm of sera sample binding to peptide divided by the specific OD450 or cpm of NHS sample binding to peptide, which value is less than 2) | + (which value is between 2 to 3) | - (specific OD450 or cpm of sera sample binding to peptide divided by the specific OD450 or cpm of NHS sample binding to peptide, which value is less than 2) | - (specific OD450 or cpm of sera sample binding to peptide divided by the specific OD450 or cpm of NHS sample binding to peptide, which value is less than 2) | ++ (which value is greater than 3) | Percentage of sera samples demonstrating binding to peptide, non-transmitter ([1]; Non-transmitter group, n = 13): 53.8%; Percentage of sera samples demonstrating binding to peptide, transmitter ([1]; Transmitter / transmission group, n = 7): 42.9%; Percent of the maternal serum samples that bound to the peptide ([1]; all 20 samples): 50%; Number of Non-Transmitters which bound to peptide [2]: 0; Percent of Non-Transmitters which bound to peptide [2]: 0%; Number of Transmitters which bound to peptide [2]: 0; Percent of Transmitters which bound to peptide [2]: 0%
2 | SSGRMIMEKGEIKNCSFNIST [Peptide 59] | - (specific OD450 or cpm of sera sample binding to peptide divided by the specific OD450 or cpm of NHS sample binding to peptide, which value is less than 2) | - (specific OD450 or cpm of sera sample binding to peptide divided by the specific OD450 or cpm of NHS sample binding to peptide, which value is less than 2) | - (specific OD450 or cpm of sera sample binding to peptide divided by the specific OD450 or cpm of NHS sample binding to peptide, which value is less than 2) | - (specific OD450 or cpm of sera sample binding to peptide divided by the specific OD450 or cpm of NHS sample binding to peptide, which value is less than 2) | - (specific OD450 or cpm of sera sample binding to peptide divided by the specific OD450 or cpm of NHS sample binding to peptide, which value is less than 2) | - (specific OD450 or cpm of sera sample binding to peptide divided by the specific OD450 or cpm of NHS sample binding to peptide, which value is less than 2) | - (specific OD450 or cpm of sera sample binding to peptide divided by the specific OD450 or cpm of NHS sample binding to peptide, which value is less than 2) | - (specific OD450 or cpm of sera sample binding to peptide divided by the specific OD450 or cpm of NHS sample binding to peptide, which value is less than 2) | - (specific OD450 or cpm of sera sample binding to peptide divided by the specific OD450 or cpm of NHS sample binding to peptide, which value is less than 2) | - (specific OD450 or cpm of sera sample binding to peptide divided by the specific OD450 or cpm of NHS sample binding to peptide, which value is less than 2) | - (specific OD450 or cpm of sera sample binding to peptide divided by the specific OD450 or cpm of NHS sample binding to peptide, which value is less than 2) | - (specific OD450 or cpm of sera sample binding to peptide divided by the specific OD450 or cpm of NHS sample binding to peptide, which value is less than 2) | - (specific OD450 or cpm of sera sample binding to peptide divided by the specific OD450 or cpm of NHS sample binding to peptide, which value is less than 2) | - (specific OD450 or cpm of sera sample binding to peptide divided by the specific OD450 or cpm of NHS sample binding to peptide, which value is less than 2) | - (specific OD450 or cpm of sera sample binding to peptide divided by the specific OD450 or cpm of NHS sample binding to peptide, which value is less than 2) | - (specific OD450 or cpm of sera sample binding to peptide divided by the specific OD450 or cpm of NHS sample binding to peptide, which value is less than 2) | - (specific OD450 or cpm of sera sample binding to peptide divided by the specific OD450 or cpm of NHS sample binding to peptide, which value is less than 2) | - (specific OD450 or cpm of sera sample binding to peptide divided by the specific OD450 or cpm of NHS sample binding to peptide, which value is less than 2) | - (specific OD450 or cpm of sera sample binding to peptide divided by the specific OD450 or cpm of NHS sample binding to peptide, which value is less than 2) | - (specific OD450 or cpm of sera sample binding to peptide divided by the specific OD450 or cpm of NHS sample binding to peptide, which value is less than 2) | Binding of maternal sera to peptide (in words) ([1]; Example 3): No binding; Number of Non-Transmitters which bound to peptide [2]: 0; Percent of Non-Transmitters which bound to peptide [2]: 0%; Number of Transmitters which bound to peptide [2]: 0; Percent of Transmitters which bound to peptide [2]: 0%
